Data taken from patent US10745346B2, “Agonists of protein tyrosine phosphatase SHP-1” (priority 2015, dated 2020).

Assays:
[1] = biological target: Recombinant SHP-1 protein (Homo sapiens, UniProt P29350); assay: SHP-1 phosphatase activity assay (RediPlate 96 EnzChek Tyrosine Phosphatase Assay kit); assay type: biochemical; conditions: SC derivatives at 1 μM for 2 hr; recombinant SHP-1 25 ng; control DMSO = 100; mean±SD (N=3)
Protocol: Effects of SC Derivatives on Phosphatase Activity in Recombinant SHP-1 RediPlate 96 EnzChek Tyrosine Phosphatase Assay kit (R-22067) was used for SHP-1 activity assay (Molecular Probes). Recombinant SHP-1 protein (25 ng) was reacted with SC derivatives at 1 μM for 2 hr. Then the SHP-1 phosphatase activity assay was performed according to the user's manual and the absorbance was measured at 465 nm. The control group was DMSO, which functioned as the solvent of the SC derivatives. The values were expressed by mean±SD (N=3).

[2] = tested on: PLC5 cells (a hepatocellular carcinoma cell line); assay: Cytotoxicity, MTT cell viability assay; assay type: cell-based; conditions: 72 h exposure
Protocol: PLC5 cells (a hepatocellular carcinoma cell line) were seeded at 5×10^3 cells per well in 96-well plates. Then, cells were exposed to SC derivatives at the indicated doses for 72 h. After that, cells were incubated with MTT (1 mg/ml) (Sigma-Aldrich, St. Louis, Mo.) for 2 h at 37° C. Cell viability was then assessed by measuring the absorbance at 570 nm using a microplate reader.

Sequence of Recombinant SHP-1 protein (P29350 whole entry): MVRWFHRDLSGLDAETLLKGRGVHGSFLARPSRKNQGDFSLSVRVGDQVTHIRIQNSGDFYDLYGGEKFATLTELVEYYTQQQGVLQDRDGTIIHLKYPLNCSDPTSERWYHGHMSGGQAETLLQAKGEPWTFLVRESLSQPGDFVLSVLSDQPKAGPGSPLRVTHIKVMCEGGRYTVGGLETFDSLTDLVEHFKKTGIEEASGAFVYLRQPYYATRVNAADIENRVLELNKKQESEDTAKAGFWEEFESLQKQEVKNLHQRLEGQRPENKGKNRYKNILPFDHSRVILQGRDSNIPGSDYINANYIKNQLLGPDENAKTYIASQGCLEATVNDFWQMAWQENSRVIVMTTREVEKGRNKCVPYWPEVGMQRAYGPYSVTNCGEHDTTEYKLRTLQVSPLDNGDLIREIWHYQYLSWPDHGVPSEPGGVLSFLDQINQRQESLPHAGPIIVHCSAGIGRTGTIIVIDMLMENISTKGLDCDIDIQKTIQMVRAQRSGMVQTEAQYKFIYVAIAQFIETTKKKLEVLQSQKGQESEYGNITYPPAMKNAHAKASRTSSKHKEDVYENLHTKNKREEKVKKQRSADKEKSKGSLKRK

`N#Cc1ccc(Oc2cc(NC(=O)Nc3cccc(C(F)(F)F)c3)ccc2Cl)cc1Cl` [compound 178, 1-(4-chloro-3-(3-chloro-4-cyanophenoxy)phenyl)-3-(3-(trifluoromethyl)phenyl)urea] was tested, and the “SHP-1 Activity (% of control)” value [1] was 106.69 ± 9.47 % of control and the IC50 [2] was 1490 nM.

For `Cc1ccc(NC(=O)Nc2cccc3ccc(Oc4ccc(C#N)cc4)cc23)cc1Oc1ccc(C#N)cc1` [compound 107, 1-(3-(4-cyanophenoxy)-4-methylphenyl)-3-(7-(4-cyanophenoxy)naphthalen-1-yl)urea], the “SHP-1 Activity (% of control)” value [1] was 149.03 ± 14.47 % of control and the IC50 [2] was > 10000 nM.

`C#Cc1cccc(NC(=O)Nc2ccc(C)c(Oc3ccc(C#N)cc3)c2)c1` [compound 66, 1-(3-(4-cyanophenoxy)-4-methylphenyl)-3-(3-ethynylphenyl)urea] was tested, and the “SHP-1 Activity (% of control)” value [1] was 93.26 ± 9.30 % of control and the IC50 [2] was > 10000 nM.

`N#Cc1ccc(Oc2ccc(F)c(NC(=O)Nc3cc(C(F)(F)F)cc(C(F)(F)F)c3)c2)cn1` [compound 183, 1-(3,5-bis(trifluoromethyl)phenyl)-3-(5-((6-cyanopyridin-3-yl)oxy)-2-fluorophenyl)urea] was tested, and the “SHP-1 Activity (% of control)” value [1] was 353.11 ± 30.81 % of control and the IC50 [2] was 530 nM.

`N#Cc1ccc(Oc2ccc3c(c2)OCCN3C(=O)Nc2ccc(Cl)c(C(F)(F)F)c2)cc1` [compound 165, N-(4-chloro-3-(trifluoromethyl)phenyl)-7-(4-cyanophenoxy)-2H-benzo[b][1,4]oxazine-4(3H)-carboxamide] was tested, and the “SHP-1 Activity (% of control)” value [1] was 169.27 ± 1.19 % of control and the IC50 [2] was > 10000 nM.

With `Cc1cc(Oc2cc(NC(=O)Nc3cc(C(F)(F)F)cc(C(F)(F)F)c3)ccc2Cl)ccc1C#N` [compound 176, 1-(3,5-bis(trifluoromethyl)phenyl)-3-(4-chloro-3-(4-cyano-3-methylphenoxy)phenyl)urea] the “SHP-1 Activity (% of control)” value [1] was 112.57 ± 3.69 % of control and the IC50 [2] was 650 nM.

With `Cc1cc(Oc2cc(NC(=O)Nc3cccc(C(F)(F)F)c3)ccc2Cl)ccc1C#N` [compound 174, 1-(4-chloro-3-(4-cyano-3-methylphenoxy)phenyl)-3-(3-(trifluoromethyl)phenyl)urea] the “SHP-1 Activity (% of control)” value [1] was 203.95 ± 30.20 % of control and the IC50 [2] was 1460 nM.

`N#Cc1ccc(Oc2cc(NC(=O)Nc3ccc(F)c(C(F)(F)F)c3)ccc2F)cc1` [compound 154, 1-(3-(4-cyanophenoxy)-4-fluorophenyl)-3-(4-fluoro-3-(trifluoromethyl)phenyl)urea] was tested, and the “SHP-1 Activity (% of control)” value [1] was 115.12 ± 3.84 % of control and the IC50 [2] was 620 nM.

In the case of `Cc1ccc(NC(=O)Nc2ccc(Cl)c(C(F)(F)F)c2)cc1Oc1ccc(C#N)nc1` [compound 87, 1-(4-chloro-3-(trifluoromethyl)phenyl)-3-(3-((6-cyanopyridin-3-yl)oxy)-4-methylphenyl)urea], the “SHP-1 Activity (% of control)” value [1] is reported as 264.67 ± 32.11 % of control and the IC50 [2] is reported as 970 nM.

With `Cc1ccc(NC(=O)Nc2ccc(C)c(Oc3ccc(C#N)c(Cl)c3)c2)cc1Oc1ccc(C#N)nc1` [compound 103, 1-(3-(3-chloro-4-cyanophenoxy)-4-methylphenyl)-3-(3-((6-cyanopyridin-3-yl)oxy)51-4-methylphenyl)urea] the “SHP-1 Activity (% of control)” value [1] was 123.75 ± 32.58 % of control and the IC50 [2] was 190 nM.

For `N#Cc1ccc(Oc2ccc3c(c2)OCCN3C(=O)Nc2ccc(F)c(C(F)(F)F)c2)cc1` [compound 166, 7-(4-cyanophenoxy)-N-(4-fluoro-3-(trifluoromethyl)phenyl)-2H-benzo[b][1,4]oxazine-4(3H)-carboxamide], the “SHP-1 Activity (% of control)” value [1] was 51.89 ± 8.16 % of control and the IC50 [2] was 1320 nM.

`Cc1cc(Oc2cc(NC(=O)Nc3ccc(F)c(C(F)(F)F)c3)ccc2Cl)ccc1C#N` [compound 177, 1-(4-chloro-3-(4-cyano-3-methylphenoxy)phenyl)-3-(4-fluoro-3-(trifluoromethyl)phenyl)urea] was tested, and the “SHP-1 Activity (% of control)” value [1] was 103.52 ± 1.13 % of control and the IC50 [2] was > 10000 nM.

With `N#CCc1ccc(NC(=O)N2CCOc3ccc(Oc4ccc(C#N)cc4)cc32)cc1` [compound 160, N-(4-(cyanomethyl)phenyl)-6-(4-cyanophenoxy)-2H-benzo[b][1,4]oxazine-4(3H)-carboxamide] the “SHP-1 Activity (% of control)” value [1] was 116.47 ± 6.60 % of control and the IC50 [2] was 5130 nM.

`N#Cc1ccc(Oc2cccc(NC(=O)C(=O)Nc3ccc(Cl)c(C(F)(F)F)c3)c2)cc1` [compound 69, N^1-(4-chloro-3-(trifluoromethyl)phenyl)-N^2-(3-(4-cyanophenoxy)phenyl) oxalamide] was tested, and the “SHP-1 Activity (% of control)” value [1] was 95.16 ± 6.91 % of control and the IC50 [2] was > 10000 nM.

With `Cc1ccc(NC(=O)Nc2ccc(C)c(Oc3ccc(C#N)cc3F)c2)cc1Oc1ccc(C#N)cc1F` [compound 85, 1,3-bis(3-(4-cyano-2-fluorophenoxy)-4-methylphenyl)urea] the “SHP-1 Activity (% of control)” value [1] was 91.42 ± 10.47 % of control and the IC50 [2] was > 10000 nM.

With `CC1=CCC(NC(=O)C(=O)Nc2ccc(C)c(Oc3ccc(C#N)cc3)c2)C=C1OC1C=CC(C#N)=CC1` (stereo not drawn) [compound 71, N^1-(3-((4-cyanocyclohexa-2,4-dien-1-yl)oxy)-4-methylcyclohexa-2,4-dien-1-yl)-N^2-(3-(4-cyanophenoxy)-4-methylphenyl)oxalamide] the “SHP-1 Activity (% of control)” value [1] was 87.54 ± 10.21 % of control and the IC50 [2] was 210 nM.

`N#CCc1ccc(Oc2ccc(NC(=O)Nc3ccc(Cl)c(C(F)(F)F)c3)cc2)cc1` [compound 171, 1-(4-chloro-3-(trifluoromethyl)phenyl)-3-(4-(4-(cyanomethyl)phenoxy)phenyl)urea] was tested, and the “SHP-1 Activity (% of control)” value [1] was 116.66 ± 17.26 % of control and the IC50 [2] was 880 nM.

`Cc1ccc(NC(=O)Nc2ccc(C)c(Oc3ccc(C#N)nc3)c2)cc1Oc1ccc(C#N)nc1` [compound 86, 1,3-bis(3-((6-cyanopyridin-3-yl)oxy)-4-methylphenyl)urea] was tested, and the “SHP-1 Activity (% of control)” value [1] was 81.06 ± 7.61 % of control and the IC50 [2] was > 10000 nM.

For `Cc1ccc(NC(=O)Nc2ccc(F)c(C(F)(F)F)c2)cc1Oc1ccc(C#N)cc1` [compound 132, 1-(3-(4-cyanophenoxy)-4-methylphenyl)-3-(4-fluoro-3-(trifluoromethyl)phenyl)urea], the “SHP-1 Activity (% of control)” value [1] was 151.59 ± 9.68 % of control and the IC50 [2] was 640 nM.

`N#Cc1ccc(Oc2ccc(NC(=O)Nc3ccc(Cl)c(C(F)(F)F)c3)c(F)c2)cc1` [compound 96, 1-(4-chloro-3-(trifluoromethyl)phenyl)-3-(4-(4-cyanophenoxy)-2-fluorophenyl)urea] was tested, and the “SHP-1 Activity (% of control)” value [1] was 194.52 ± 17.89 % of control and the IC50 [2] was 410 nM.

In the case of `Cc1ccc(NC(=O)Nc2cccc(C(F)(F)F)c2)cc1Oc1ccc(C#N)cc1` [compound 134, 1-(3-(4-cyanophenoxy)-4-methylphenyl)-3-(3-(trifluoromethyl)phenyl)urea], the “SHP-1 Activity (% of control)” value [1] is reported as 152.29 ± 7.92 % of control and the IC50 [2] is reported as 740 nM.

In the case of `N#Cc1ccc(Oc2cccc(NC(=O)Nc3ccc(Cl)c(C(F)(F)F)c3)c2)c(F)c1` [compound 80, 1-(4-chloro-3-(trifluoromethyl)phenyl)-3-(3-(4-cyano-2-fluorophenoxy)phenyl) urea], the “SHP-1 Activity (% of control)” value [1] is reported as “X91.93 ± 8.09 % of control” and the IC50 [2] is reported as 1670 nM.

`N#Cc1ccc(Oc2ccc(Cl)c(NC(=O)Nc3ccc(Cl)c(C(F)(F)F)c3)c2)cc1` [compound 142, 1-(4-chloro-3-(trifluoromethyl)phenyl)-3-(2-chloro-5-(4-cyanophenoxy)phenyl)urea] was tested, and the “SHP-1 Activity (% of control)” value [1] was 249.66 ± 5.81 % of control and the IC50 [2] was 450 nM.

For `N#Cc1ccc(Oc2cc(NC(=O)Nc3cc(C(F)(F)F)cc(C(F)(F)F)c3)ccc2Cl)cn1` [compound 182, 1-(3,5-bis(trifluoromethyl)phenyl)-3-(4-chloro-3-((6-cyanopyridin-3-yl)oxy)phenyl)urea], the “SHP-1 Activity (% of control)” value [1] was 110.50 ± 6.08 % of control and the IC50 [2] was 560 nM.

With `Cc1ccc(NC(=O)Nc2ccc(CC#N)cc2)cc1Oc1ccc(C#N)cc1` [compound 135, 1-(4-(cyanomethyl)phenyl)-3-(3-(4-cyanophenoxy)-4-methylphenyl)urea] the “SHP-1 Activity (% of control)” value [1] was 153.32 ± 14.65 % of control and the IC50 [2] was 1850 nM.

For `N#Cc1ccc(Oc2cc(NC(=O)Nc3cccc(C(F)(F)F)c3)ccc2Cl)cc1` [compound 138, 1-(4-chloro-3-(4-cyanophenoxy)phenyl)-3-(3-(trifluoromethyl)phenyl)urea], the “SHP-1 Activity (% of control)” value [1] was 196.54 ± 22.4 % of control and the IC50 [2] was 570 nM.

`N#Cc1ccc(Oc2ccc3cccc(NC(=O)Nc4ccc(Cl)c(C(F)(F)F)c4)c3c2)cc1Cl` [compound 109, 1-(4-chloro-3-(trifluoromethyl)phenyl)-3-(7-(3-chloro-4-cyanophenoxy)naphthalen-1-yl)urea] was tested, and the “SHP-1 Activity (% of control)” value [1] was 143.61 ± 5.36 % of control and the IC50 [2] was 2070 nM.

With `Cc1ccc(NC(=O)Nc2ccc(C)c(Oc3ccc(C#N)c4ccccc34)c2)cc1Oc1ccc(C#N)c2ccccc12` [compound 113, 1,3-bis(3-((4-cyanonaphthalen-1-yl)oxy)-4-methylphenyl)urea] the “SHP-1 Activity (% of control)” value [1] was 153.49 ± 13.55 % of control and the IC50 [2] was > 10000 nM.

In the case of `Cc1ccc(NC(=O)Nc2ccc(C)c(Oc3ccc(C#N)c(Cl)c3)c2)cc1Oc1ccc(C#N)cc1` [compound 100, 1-(3-(3-chloro-4-cyanophenoxy)-4-methylphenyl)-3-(3-(4-cyanophenoxy)-4-methylphenyl)urea], the “SHP-1 Activity (% of control)” value [1] is reported as 94.38 ± 11.11 % of control and the IC50 [2] is reported as 110 nM.

For `N#Cc1ccc(Oc2cc(NC(=O)Nc3ccc(Cl)c(Oc4ccc(C#N)cc4)c3)ccc2Cl)cc1` [compound 92, 1,3-bis(4-chloro-3-(4-cyanophenoxy)phenyl)urea], the “SHP-1 Activity (% of control)” value [1] was 252.27 ± 10.78 % of control and the IC50 [2] was > 10000 nM.
